According to patent publication US20200245667A1, “OLIGOSACCHARIDE COMPOSITIONS AND THEIR USE DURING TRANSITIONAL PHASES OF THE MAMMALIAN GUT MICROBIOME” (EVOLVE BIOSYSTEMS, INC., priority 2017, published 2020):

How the values were obtained:
[1] = test system: L. reuteri; conditions: Rattanaprasert et al. 2014; cited from earlier work
[2] = test system: B. infantis; assay: free sugar consumption by intestinal microbiota; type: cell-based; parameters: key: *: predicted, but not observed; ND: Not Determined; conditions: predicted, but not observed
Source text: (§1) A number of bacterial species are provided in Table 2, since the inventors have discovered preferred carbon source(s) for certain bacteria. Certain embodiments of the invention described herein would include one or more of any of the species found in Table 2.

[3] = test system: B. bifidum; assay: free sugar consumption by intestinal microbiota; type: cell-based; parameters: key: *: predicted, but not observed; ND: Not Determined; conditions: predicted, but not observed
Source text: as §1

[4] = test system: B. longum; assay: free sugar consumption by intestinal microbiota; type: cell-based; parameters: key: *: predicted, but not observed; ND: Not Determined; conditions: predicted, but not observed
Source text: as §1

[5] = test system: B. breve; assay: free sugar consumption by intestinal microbiota; type: cell-based; parameters: key: *: predicted, but not observed; ND: Not Determined; conditions: predicted, but not observed
Source text: as §1

Structure (SMILES)	growth of Lactobacillus reuteri on the sugar [1]	preferences for free sugar consumption [2]	preferences for free sugar consumption [3]	preferences for free sugar consumption [4]	preferences for free sugar consumption [5]
O=C[C@@H](O)[C@H](O)[C@H](O)CO [Arabinose]	known to grow on arabinose	–	–	–	–
C[C@H](O)[C@@H](O)[C@@H](O)[C@H](O)C=O [Fucose]	–	*	*	*	*
C[C@H](O)[C@H](O)[C@@H](O)[C@@H](O)C=O [Rhamnose]	utilize rhamnose as a terminal electron acceptor to improve its growth	–	–	–	–
